Numbered stars: 1 amine (or outer) side, 2 acyl side, 3 side chain; on linkers, the order of the positions; unused ones are H or OH. Bridge positions count the residues as written; N and C are the ends. Square brackets hold non-standard residues; d marks the D form. Peptide text beside a SMILES is read from it. * marks the point of attachment. hPhe(3-Cl-4-CF3) = N[C@@H](CCc1ccc(C(F)(F)F)c(Cl)c1)C(=O)O; Phe(3-CF3) = N[C@@H](Cc1cccc(C(F)(F)F)c1)C(=O)O; X24 = COc1cncc(C[C@@H](C(=O)[*:2])N(C)[*:1])c1; X20 = Cc1cncc(C[C@@H](C(=O)[*:2])N(C)[*:1])c1; 3Oxa8azabicyclo(3.2.1)octane = C1CC2COCC1N2*; NMePhe(4-Me) = CN[C@@H](Cc1ccc(C)cc1)C(=O)O; X72 = O=C([C@@H]1Cc2ccccc2N1[*:1])[*:2]; hNle(7,7-F2) = N[C@@H](CCCCC(F)F)C(=O)O; NMeGly(cPent) = CN[C@H](C(=O)O)C1CCCC1; Phe(3-I) = N[C@@H](Cc1cccc(I)c1)C(=O)O; Pro(4,4-F2) = O=C(O)[C@@H]1CC(F)(F)CN1; Ala(cPent) = N[C@@H](CC1CCCC1)C(=O)O; NMe4Pal = CN[C@@H](Cc1ccncc1)C(=O)O; NMeCha = CN[C@@H](CC1CCCCC1)C(=O)O; NMeCba = CN[C@@H](CC1CCC1)C(=O)O; NMeChg = CN[C@H](C(=O)O)C1CCCCC1; NMeI = CC[C@H](C)[C@H](NC)C(=O)O; NMeD = CN[C@@H](CC(=O)O)C(=O)O; NMeL = CN[C@@H](CC(C)C)C(=O)O; NMeNva = CCC[C@H](NC)C(=O)O; NMeV = CN[C@H](C(=O)O)C(C)C; d(β3hA) = C[C@@H](N)CC(=O)O; NMeAbu = CC[C@H](NC)C(=O)O; NMeS = CN[C@@H](CO)C(=O)O; NMeA = CN[C@@H](C)C(=O)O; NMeAib = CNC(C)(C)C(=O)O; Piperidide = C1CCN(*)CC1; Pyrrolidide = C1CCN(*)C1; dNMeA = CN[C@H](C)C(=O)O; Ac5c = NC1(C(=O)O)CCCC1; Aze = O=C(O)[C@@H]1CCN1; Isopentyl = CC(C)CC*; NPrGly = CCCNCC(=O)O; Sar = CNCC(=O)O Bounds are passed on as bounds.

This experiment concerns Human pancreatic cancer cell line AsPC-1 (G12D mutation Kras). The experiment in a line: AsPC-1 cell growth inhibition (AsPC-1 CGI). The following applies: read-out: AsPC-1 cell growth inhibition, 50% growth inhibitory concentration (IC50 value); 96 hours, CellTiter-Glo, values classified in ranges. Type of experiment: cell-based. (In general: In ATP-based viability assays light output follows the ATP content of the culture.)
Procedure: Test compounds were serially dilated with dimethyl sulfoxide, and 200 nL was then dispensed to a U-bottom 96-well plate using Labcyte Echo. […] The cell suspension was dispensed to a. plate containing a test compound at 100 μL per well and incubated at 37° C. in a 5% carbon dioxide gas incubator. 96 hours later, 80 μL of CellTiter-Glo (Promega) was added to each well and fluorescence was measured.
For `CC[C@H](C)[C@@H]1NC(=O)[C@H](CC(C)C)N(C)C(=O)C[C@@H](C(=O)N2CCCCC2)N(C)C(=O)[C@H](C2CCCCC2)N(C)C(=O)C2(CCCC2)NC(=O)[C@@H]2CCCN2C(=O)[C@H](CCc2ccc(C(F)(F)F)c(Cl)c2)NC(=O)CN(C)C(=O)[C@H](CC)N(C)C(=O)CN(C)C(=O)CN(C)C1=O` [Compound 1743] ([NMeL]I[Sar][Sar][NMeAbu][Sar][hPhe(3-Cl-4-CF3)]P[Ac5c][NMeChg][NMeD]-Piperidide; lactam N-11), the IC50 was > 500 nM.

Consider `CC(C)C[C@H]1C(=O)N[C@@H](CCCCC(F)F)C(=O)N(C)CC(=O)N(C)CC(=O)N(C)[C@@H](CC2CCCCC2)C(=O)N(C)CC(=O)N[C@@H](CCc2ccc(C(F)(F)F)c(Cl)c2)C(=O)N2CCC[C@H]2C(=O)NC2(CCCC2)C(=O)N(C)[C@@H](C2CCCCC2)C(=O)N(C)[C@H](C(=O)N2CCCCC2)CC(=O)N1C` [Compound 92] ([NMeL][hNle(7,7-F2)][Sar][Sar][NMeCha][Sar][hPhe(3-Cl-4-CF3)]P[Ac5c][NMeChg][NMeD]-Piperidide; lactam N-11), for which the IC50 was > 500 nM.

As to `CC[C@H](C)[C@@H]1NC(=O)[C@H](CC(C)C)N(C)C(=O)C[C@@H](C(=O)N2CCCCC2)N(C)C(=O)[C@H](C2CCCCC2)N(C)C(=O)C2(CCCC2)NC(=O)[C@H](Cc2cncc(C)c2)N(C)C(=O)[C@H](CCc2ccc(C(F)(F)F)c(Cl)c2)NC(=O)CN(C)C(=O)[C@H](CC2CCCCC2)N(C)C(=O)[C@@H]2CCN2C(=O)CN(C)C1=O` [Compound 477] ([NMeL]I[Sar][Aze][NMeCha][Sar][hPhe(3-Cl-4-CF3)][X20][Ac5c][NMeChg][NMeD]-Piperidide; lactam N-11), the IC50 is > 500 nM.

As to `CC[C@H](C)[C@@H]1NC(=O)[C@H](CC(C)C)N(C)C(=O)C[C@@H](C)NC(=O)[C@H](C2CCCC2)N(C)C(=O)[C@H](C(C)C)NC(=O)[C@@H]2CCCN2C(=O)[C@H](CCc2ccc(C(F)(F)F)c(Cl)c2)NC(=O)CN(C)C(=O)[C@H](Cc2ccc(C)cc2)N(C)C(=O)[C@@H]2CCN2C(=O)[C@H](C)N(C)C1=O` [Compound 933] (cyclo([Aze][NMePhe(4-Me)][Sar][hPhe(3-Cl-4-CF3)]PV[NMeGly(cPent)][d(β3hA)][NMeL]I[NMeA])), the IC50 was > 500 nM.

Consider `CCC[C@H]1C(=O)N[C@@H]([C@@H](C)CC)C(=O)N(C)CC(=O)N(C)CC(=O)N(C)[C@@H](CC2CCCCC2)C(=O)N(C)CC(=O)N[C@@H](CCc2ccc(C(F)(F)F)c(Cl)c2)C(=O)N2CC(F)(F)C[C@H]2C(=O)NC2(CCCC2)C(=O)N(C)[C@@H](C2CCCCC2)C(=O)N(C)[C@H](C(=O)N2CCCC2)CC(=O)N1C` [Compound 1232] ([NMeNva]I[Sar][Sar][NMeCha][Sar][hPhe(3-Cl-4-CF3)][Pro(4,4-F2)][Ac5c][NMeChg][NMeD]-Pyrrolidide; lactam N-11), for which the IC50 was ≤ 20 nM.

As for `CC[C@H](C)[C@@H]1NC(=O)[C@H](C2CCCC2)N(C)C(=O)C[C@@H](C)NC(=O)[C@H](C(C)C)N(C)C(=O)C2(CCCC2)NC(=O)[C@@H]2CCCN2C(=O)[C@H](CCc2ccc(C(F)(F)F)c(Cl)c2)NC(=O)CN(C)C(=O)[C@H](CC2CCCCC2)N(C)C(=O)CN(C)C(=O)CN(C)C1=O` [Compound 857] (cyclo([Ac5c][NMeV][d(β3hA)][NMeGly(cPent)]I[Sar][Sar][NMeCha][Sar][hPhe(3-Cl-4-CF3)]P)), the IC50 was > 500 nM.

As for `CC[C@H](C)[C@@H]1NC(=O)[C@H](CC(C)C)N(C)C(=O)C[C@@H](C(=O)N2CCCCC2)N(C)C(=O)[C@H](C2CCCCC2)N(C)C(=O)C2(CCCC2)NC(=O)[C@@H]2Cc3ccccc3N2C(=O)[C@H](CCc2ccc(C(F)(F)F)c(Cl)c2)NC(=O)CN(C)C(=O)[C@H](CC2CCCCC2)N(C)C(=O)[C@@H]2CCN2C(=O)CN(C)C1=O` [Compound 725] ([NMeL]I[Sar][Aze][NMeCha][Sar][hPhe(3-Cl-4-CF3)][X72][Ac5c][NMeChg][NMeD]-Piperidide; lactam N-11), the IC50 is > 500 nM.

Take `CC[C@H](C)[C@@H]1NC(=O)[C@H](CC(C)C)N(C)C(=O)C[C@@H](C(=O)N2CCCCC2)N(C)C(=O)[C@H](CC(C)C)NC(=O)C(C)(C)N(C)C(=O)[C@H](Cc2ccc(OC)cc2)NC(=O)[C@H](Cc2cccc(I)c2)NC(=O)CN(C)C(=O)[C@H](Cc2ccc(C)cc2)N(C)C(=O)CN(C)C(=O)CN(C)C1=O` [Compound 247] ([NMeL]I[Sar][Sar][NMePhe(4-Me)][Sar][Phe(3-I)]Y(Me)[NMeAib]L[NMeD]-Piperidide; lactam N-11): the IC50 is > 500 nM.

`CC[C@H](C)[C@@H]1NC(=O)[C@H](CC(C)C)N(C)C(=O)C[C@@H](C(=O)N2CCCC2)NC(=O)[C@H](C(C)C)N(C)C(=O)C2(CCCC2)NC(=O)[C@@H]2CCCN2C(=O)[C@H](CCc2ccc(C(F)(F)F)c(Cl)c2)NC(=O)CN(C)C(=O)[C@H](CC2CCCCC2)N(C)C(=O)CN(C)C(=O)CN(C)C1=O` [Compound 508] ([NMeL]I[Sar][Sar][NMeCha][Sar][hPhe(3-Cl-4-CF3)]P[Ac5c][NMeV]D-Pyrrolidide; lactam N-11): the IC50 was > 500 nM.

As to `CC[C@H](C)[C@@H]1NC(=O)[C@H](CC(C)C)N(C)C(=O)C[C@@H](C(=O)N2CCCCC2)N(C)C(=O)[C@H](C2CCCCC2)N(C)C(=O)C2(CCCC2)NC(=O)[C@H](Cc2cncc(OC)c2)N(C)C(=O)[C@H](CCc2ccc(C(F)(F)F)c(Cl)c2)NC(=O)CN(C)C(=O)[C@H](CC2CCCCC2)N(C)C(=O)[C@@H]2CCN2C(=O)CN(C)C1=O` [Compound 770] ([NMeL]I[Sar][Aze][NMeCha][Sar][hPhe(3-Cl-4-CF3)][X24][Ac5c][NMeChg][NMeD]-Piperidide; lactam N-11), the IC50 is > 500 nM.

As to `CC[C@H](C)[C@@H]1NC(=O)[C@H](CC(C)C)N(C)C(=O)C[C@@H](C)NC(=O)[C@H](C(C)C)N(C)C(=O)C2(CCCC2)NC(=O)[C@@H]2CCCN2C(=O)[C@H](CCc2ccc(C(F)(F)F)c(Cl)c2)NC(=O)CN(C)C(=O)[C@H](CC2CCC2)N(C)C(=O)CN(C)C(=O)CN(C)C1=O` [Compound 75] (cyclo([Ac5c][NMeV][d(β3hA)][NMeL]I[Sar][Sar][NMeCba][Sar][hPhe(3-Cl-4-CF3)]P)), the IC50 was > 500 nM.

As for `CC[C@H](C)[C@@H]1NC(=O)[C@H](CC(C)C)N(C)C(=O)C[C@@H](C(=O)N(C)C)N(C)C(=O)[C@H]([C@@H](C)CC)N(C)C(=O)C2(CCCC2)NC(=O)[C@H](COCCC(C)C)N(C)C(=O)[C@H](CCc2ccc(C(F)(F)F)c(Cl)c2)NC(=O)CN(C)C(=O)[C@H](Cc2ccc(C)cc2)N(C)C(=O)[C@@H]2CCN2C(=O)[C@H](C)N(C)C1=O` [Compound 27] ([NMeL]I[NMeA][Aze][NMePhe(4-Me)][Sar][hPhe(3-Cl-4-CF3)][NMeS](Isopentyl)[Ac5c][NMeI][NMeD]-NMe2; lactam N-11), the IC50 was ≤ 20 nM.

Turning to `CC[C@H](C)[C@@H]1NC(=O)[C@H](C)N(C)C(=O)C[C@@H](C)NC(=O)[C@H](C2CCCC2)N(C)C(=O)C2(CCCC2)NC(=O)[C@@H]2CCCN2C(=O)[C@H](CCc2ccc(C(F)(F)F)c(Cl)c2)NC(=O)[C@@H](C)N(C)C(=O)[C@H](CC2CCCCC2)N(C)C(=O)CN(C)C(=O)CN(C)C1=O` [Compound 1535] (cyclo([Ac5c][NMeGly(cPent)][d(β3hA)][NMeA]I[Sar][Sar][NMeCha][dNMeA][hPhe(3-Cl-4-CF3)]P)), the IC50 is > 500 nM.

Consider `CC[C@H](C)[C@@H]1NC(=O)[C@H](CC(C)C)N(C)C(=O)C[C@@H](C(=O)N(C)C)N(C)C(=O)[C@H]([C@@H](C)CC)N(C)C(=O)[C@H](C(C)C)NC(=O)[C@H](Cc2ccncc2)N(C)C(=O)[C@H](CCc2ccc(C(F)(F)F)c(Cl)c2)NC(=O)CN(C)C(=O)[C@H](Cc2ccc(C)cc2)N(C)C(=O)[C@@H]2CCN2C(=O)[C@H](C)N(C)C1=O` [Compound 1897] ([NMeL]I[NMeA][Aze][NMePhe(4-Me)][Sar][hPhe(3-Cl-4-CF3)][NMe4Pal]V[NMeI][NMeD]-NMe2; lactam N-11), for which the IC50 is > 500 nM.

Turning to `CC[C@H](C)[C@@H]1NC(=O)[C@H](CC(C)C)N(C)C(=O)C[C@@H](C(=O)N2CCCCC2)N(C)C(=O)[C@H](CC(C)C)NC(=O)C(C)(C)N(C)C(=O)[C@H](Cc2cccc(C(F)(F)F)c2)NC(=O)[C@H](Cc2cccc(I)c2)NC(=O)CN(C)C(=O)[C@H](Cc2ccc(C)cc2)N(C)C(=O)CN(C)C(=O)CN(C)C1=O` [Compound 376] ([NMeL]I[Sar][Sar][NMePhe(4-Me)][Sar][Phe(3-I)][Phe(3-CF3)][NMeAib]L[NMeD]-Piperidide; lactam N-11), the IC50 is > 500 nM.

`CC(C)C[C@H]1C(=O)N[C@@H](CC2CCCC2)C(=O)N(C)CC(=O)N(C)CC(=O)N(C)[C@@H](CC2CCCCC2)C(=O)N(C)CC(=O)N[C@@H](CCc2ccc(C(F)(F)F)c(Cl)c2)C(=O)N2CCC[C@H]2C(=O)NC2(CCCC2)C(=O)N(C)[C@@H](C(C)C)C(=O)N(C)[C@H](C(=O)N2CCCCC2)CC(=O)N1C` [Compound 627] ([NMeL][Ala(cPent)][Sar][Sar][NMeCha][Sar][hPhe(3-Cl-4-CF3)]P[Ac5c][NMeV][NMeD]-Piperidide; lactam N-11): the IC50 is > 500 nM.

As for `CC[C@H](C)[C@@H]1NC(=O)[C@H](CC(C)C)N(C)C(=O)C[C@@H](C(=O)N2C3CCC2COC3)NC(=O)[C@H]([C@@H](C)CC)N(C)C(=O)C2(CCCC2)NC(=O)[C@@H]2CCCN2C(=O)[C@H](CCc2ccc(C(F)(F)F)c(Cl)c2)NC(=O)CN(C)C(=O)[C@H](CC2CCCCC2)N(C)C(=O)CN(C)C(=O)CN(C)C1=O` [Compound 1257] ([NMeL]I[Sar][Sar][NMeCha][Sar][hPhe(3-Cl-4-CF3)]P[Ac5c][NMeI]D-{3Oxa8azabicyclo(3.2.1)octane}; lactam N-11), the IC50 is > 500 nM.

Regarding `CCCN1CC(=O)N(C)[C@@H](CC2CCCCC2)C(=O)N(C)CC(=O)N[C@@H](CCc2ccc(C(F)(F)F)c(Cl)c2)C(=O)N2CCC[C@H]2C(=O)NC2(CCCC2)C(=O)N(C)[C@@H](C(C)C)C(=O)N[C@H](C)CC(=O)N(C)[C@@H](CC(C)C)C(=O)N[C@@H]([C@@H](C)CC)C(=O)N(C)CC1=O` [Compound 405] (cyclo([Ac5c][NMeV][d(β3hA)][NMeL]I[Sar][NPrGly][NMeCha][Sar][hPhe(3-Cl-4-CF3)]P)), the IC50 is > 500 nM.
